From patent US9562036B2, “Fluoromethyl-substituted pyrrole carboxamides as CaV2.2 calcium channel blockers” (GRÜNENTHAL GMBH, priority 2013, dated 2017)

Molecular target: T1, Human CaV2.2 channels (Homo sapiens, UniProt Q00975)
T1 construct: expressed in transfected cells; also stably expressing Kir2.3)
Experiment: Fluorescent assay for CaV2.2 channels using potassium depolarization to induce channel opening (FLIPR, Fluo 4)
Type: cell-based
Conditions: 3 μM test compound; 30 mM KCl alternative assay buffer (inactivated channel state); HEK293 cells; read-out: %-Inhib (CaV2.2) @3 μM @30 mM KCl
Excerpt: In the process, the Ca^2+ influx is quantified in the FLIPR assay with the aid of a Ca^2+-sensitive dye (type Fluo-4, Molecular Probes Europe BV, Leiden, the Netherlands) in a fluorescent imaging plate reader (FLIPR 3, Molecular Devices, Sunnyvale, USA), as described hereinafter.
2. Assay Descriptions and Biological Data: 2.1 Fluorescent Assay for CaV2.2 Channels Using Potassium Depolarization to Induce Channel Opening
Human CaV2.2 channels were stably expressed in HEK293 cells together with alpha2-delta and beta subunits of voltage gated calcium channels. In addition, an inwardly rectifying potassium channel (Kir2.3) was stably expressed in these cells to augment control of the cell membrane potential by the concentration of extracellular potassium ions. Raise of the extracellular potassium concentration leads to depolarization of the membrane potential and thus regulates the voltage dependent state of CaV2.2 channels. For preparation, cells were seeded in black poly-D-lysine coated 96-well plates (Becton Dickinson, Biocoat 4640) in 100 μL medium [500 mL DMEM/F-12 plus Glutamax (Invitrogen 31331-093) plus 5.5 mL MEM NEAA 100× (Invitrogen 11140-035) plus 50 mL FBS decomplemented (Invitrogen 10270-106) plus 200 μg/mL Geneticin (Invitrogen 10131-027) plus 50 μg/mL Hygromycin B (Invitrogen 10687-010) plus 2 μg/mL Blasticidin (anti-bl5b Invivo-Gen) plus 0.2 μg/mL Puromycin (A 11138-03)] at a cell density of 30.000 cells per well. Plates were incubated at 37° C. (5% CO2) for 20 to 23 h. On the day of experiment medium was discarded and cells were loaded with Fluo 4 by addition of 100 μL of basic assay buffer (10 mM HEPES, 1 mM KCl, 149 mM NaCl, 0.8 mM CaC2, 1.7 mM MgCl2, 10 mM Glucose, 0.1% BSA. pH 7.4) containing 2 μM Fluo 4 (Molecular Probes; F-14201), 0.01% pluronic acid (Molecular Probes; P-6866) and 2.5 mM probenecid (Molecular Probes; P36400). Cells were incubated in the dark at 25° C. for 60 min. Then dye containing buffer was discarded and 100 μL basic (1 mM KCl) or alternative (30 mM KCl) assay buffer was added. The alternative assay buffer contained altered concentrations of KCl (30 mM) and NaCl (120 mM) and was used in order to promote the inactivated channel state. After that 25 μL of basic or alternative assay buffer with or without test compound were added and cells were incubated again in the dark at 25° C. for 15 min. Fluorescence intensity was measured on a FLIPR 3 instrument (Molecular Devices Corp., Sunnyvale, Calif.) with excitation at 480 nm and emission at 535 nm. After continuously reading fluorescence for 30 sec, 50 μL of basic assay buffer containing 210 mM KCl (NaCl omitted) were added for depolarization. Peak fluorescent signal intensity was determined and the amplitude of the peak signal, normalized to base line, was used to measure channel inhibition by test compounds.

T1 sequence (Q00975 whole entry): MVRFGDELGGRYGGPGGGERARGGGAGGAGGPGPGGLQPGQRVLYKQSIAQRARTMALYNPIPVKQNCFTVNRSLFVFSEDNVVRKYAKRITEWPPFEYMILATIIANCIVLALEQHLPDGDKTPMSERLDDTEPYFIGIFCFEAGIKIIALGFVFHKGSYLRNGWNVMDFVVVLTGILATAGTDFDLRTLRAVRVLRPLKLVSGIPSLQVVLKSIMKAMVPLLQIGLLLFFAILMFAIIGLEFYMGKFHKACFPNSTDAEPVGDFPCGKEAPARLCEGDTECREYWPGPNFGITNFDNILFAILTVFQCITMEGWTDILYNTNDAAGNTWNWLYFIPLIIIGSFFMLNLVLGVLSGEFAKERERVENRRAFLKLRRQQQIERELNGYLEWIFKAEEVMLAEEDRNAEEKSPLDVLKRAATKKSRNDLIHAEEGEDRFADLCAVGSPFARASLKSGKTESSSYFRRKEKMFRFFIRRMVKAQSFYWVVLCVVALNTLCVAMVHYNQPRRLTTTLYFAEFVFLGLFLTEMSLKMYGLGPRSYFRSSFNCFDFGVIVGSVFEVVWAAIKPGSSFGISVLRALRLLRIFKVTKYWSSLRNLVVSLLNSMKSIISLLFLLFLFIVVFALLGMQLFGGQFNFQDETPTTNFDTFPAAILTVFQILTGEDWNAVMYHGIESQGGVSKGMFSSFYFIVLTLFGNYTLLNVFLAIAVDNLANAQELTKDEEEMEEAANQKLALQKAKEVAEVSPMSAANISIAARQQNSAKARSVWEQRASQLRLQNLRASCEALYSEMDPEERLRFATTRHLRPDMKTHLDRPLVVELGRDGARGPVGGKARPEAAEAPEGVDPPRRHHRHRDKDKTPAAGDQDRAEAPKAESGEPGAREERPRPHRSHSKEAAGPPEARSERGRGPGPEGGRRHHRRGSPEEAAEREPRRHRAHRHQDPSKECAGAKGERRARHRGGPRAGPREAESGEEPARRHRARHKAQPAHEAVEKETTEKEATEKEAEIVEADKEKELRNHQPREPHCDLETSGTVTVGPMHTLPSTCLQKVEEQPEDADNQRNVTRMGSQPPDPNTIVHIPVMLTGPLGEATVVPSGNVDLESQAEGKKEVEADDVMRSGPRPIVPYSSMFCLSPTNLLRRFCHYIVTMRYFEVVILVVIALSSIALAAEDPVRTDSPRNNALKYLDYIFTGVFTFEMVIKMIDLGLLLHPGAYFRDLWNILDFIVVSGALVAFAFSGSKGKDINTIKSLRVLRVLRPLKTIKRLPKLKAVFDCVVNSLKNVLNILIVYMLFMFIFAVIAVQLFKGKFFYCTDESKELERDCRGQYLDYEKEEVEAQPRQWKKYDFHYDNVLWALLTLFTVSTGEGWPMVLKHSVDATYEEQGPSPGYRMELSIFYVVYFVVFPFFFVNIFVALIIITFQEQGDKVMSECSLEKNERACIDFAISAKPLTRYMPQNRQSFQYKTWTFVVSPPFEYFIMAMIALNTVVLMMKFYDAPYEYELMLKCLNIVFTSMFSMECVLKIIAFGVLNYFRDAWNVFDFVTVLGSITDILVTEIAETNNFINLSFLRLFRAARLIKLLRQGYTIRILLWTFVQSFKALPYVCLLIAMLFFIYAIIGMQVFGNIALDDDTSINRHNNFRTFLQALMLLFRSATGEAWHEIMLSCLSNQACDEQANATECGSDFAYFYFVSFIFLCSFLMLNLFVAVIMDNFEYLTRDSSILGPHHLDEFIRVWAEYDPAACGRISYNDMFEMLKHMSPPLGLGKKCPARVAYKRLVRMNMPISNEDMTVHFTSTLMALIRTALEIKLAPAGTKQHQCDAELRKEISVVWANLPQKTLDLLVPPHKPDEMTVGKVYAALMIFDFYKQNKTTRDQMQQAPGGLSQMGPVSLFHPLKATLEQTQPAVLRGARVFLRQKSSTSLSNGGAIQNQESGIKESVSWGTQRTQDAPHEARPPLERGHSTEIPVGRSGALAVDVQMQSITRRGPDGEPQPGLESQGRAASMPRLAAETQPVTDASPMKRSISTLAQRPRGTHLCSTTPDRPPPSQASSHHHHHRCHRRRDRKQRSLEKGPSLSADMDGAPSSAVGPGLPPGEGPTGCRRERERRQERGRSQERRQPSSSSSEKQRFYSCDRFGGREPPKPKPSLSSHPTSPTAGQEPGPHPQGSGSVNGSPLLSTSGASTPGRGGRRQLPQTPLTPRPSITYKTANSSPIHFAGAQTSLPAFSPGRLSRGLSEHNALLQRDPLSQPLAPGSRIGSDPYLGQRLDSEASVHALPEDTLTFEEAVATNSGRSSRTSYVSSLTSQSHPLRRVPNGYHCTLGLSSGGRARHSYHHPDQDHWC

Q: How did the inhibition at 3 µM turn out when `Cc1c(-c2ncc(Cl)cn2)c(C(=O)N(C)CC(C)(C)C(N)=O)n(Cc2ccccc2)c1C(F)(F)F` [Example 48, 1-Benzyl-N-(2-carbamoyl-2-methyl-propyl)-3-(5-chloro-pyrimidin-2-yl)-N,4-dimethyl-5-(trifluoromethyl)-1H-pyrrole-2-carboxylic acid amide] was run?
A: The inhibition at 3 µM was > 95%.

Q: With `Cc1c(-c2ncc(Cl)cn2)c(C(=O)NC(C)C)n(Cc2ccccc2)c1C(F)(F)F` [Example 52, 1-Benzyl-3-(5-chloro-pyrimidin-2-yl)-N-isopropyl-4-methyl-5-(trifluoromethyl)-1H-pyrrole-2-carboxylic acid amide] as the compound, how does the inhibition at 3 µM read?
A: The inhibition at 3 µM was 40 to 75%.

Q: With `Cc1c(-c2ncccn2)c(C(=O)N2CCOCC2)n(Cc2ccccc2)c1C(F)(F)F` [Example 40, (1-Benzyl-4-methyl-3-(pyrimidin-2-yl)-5-(trifluoromethyl)-1H-pyrrol-2-yl)(morpholino)methanone] as the compound, how does the inhibition at 3 µM read?
A: Its inhibition at 3 µM is 40 to 75%.

Q: `Cc1cc(C#N)ncc1-c1c(C)c(C(F)(F)F)n(Cc2ccccc2)c1C(=O)N1CCOCC1` [Example 26, 5-[1-Benzyl-4-methyl-2-(morpholine-4-carbonyl)-5-(trifluoromethyl)-1H-pyrrol-3-yl]-4-methyl-pyridine-2-carbonitrile] was tested. Which inhibition at 3 µM did it give?
A: The inhibition at 3 µM was 75 to 95%.

Q: Which inhibition at 3 µM does the source give for `Cc1cc(Cl)ncc1-c1c(C)c(C(F)(F)F)n(Cc2ccccc2)c1C(=O)N(C)CC(C)(C)C` [Example 20, 1-Benzyl-3-(6-chloro-4-methyl-pyridin-3-yl)-N-(2,2-dimethyl-propyl)-N,4-dimethyl-5-(trifluoromethyl)-1H-pyrrole-2-carboxylic acid amide] here?
A: Its inhibition at 3 µM is 75 to 95%.

Q: Which inhibition at 3 µM does the source give for `Cc1noc(C)c1-c1c(C)c(C(F)(F)F)n(Cc2ccccc2)c1C(=O)N1CCOCC1` [Example 23, [1-Benzyl-3-(3,5-dimethyl-isoxazol-4-yl)-4-methyl-5-(trifluoromethyl)-1H-pyrrol-2-yl]-morpholin-4-yl-methanone] here?
A: Its inhibition at 3 µM is 75 to 95%.

Q: For `Cc1c(-c2ccc(Cl)cn2)c(C(=O)N2CCOCC2)n(Cc2ccccc2)c1C(F)(F)F` [Example 42, [1-Benzyl-3-(5-chloro-pyridin-2-yl)-4-methyl-5-(trifluoromethyl)-1H-pyrrol-2-yl]-morpholin-4-yl-methanone], which inhibition at 3 µM is on record?
A: Its inhibition at 3 µM is > 95%.

Q: How did the inhibition at 3 µM turn out when `Cc1c(-c2ncc(Cl)cn2)c(C(=O)N2CCNC(=O)C2)n(Cc2ccccc2)c1C(F)(F)F` [Example 47, 4-[1-Benzyl-3-(5-chloro-pyrimidin-2-yl)-4-methyl-5-(trifluoromethyl)-1H-pyrrole-2-carbonyl]-piperazin-2-one] was run?
A: Its inhibition at 3 µM is 40 to 75%.

Q: Which inhibition at 3 µM does the source give for `Cc1c(-c2ccc(F)cn2)c(C(=O)N(C)CC(C)(C)C)n(Cc2ccccc2)c1C(F)(F)F` [Example 31, 1-Benzyl-3-(5-fluoropyridin-2-yl)-N,4-dimethyl-N-neopentyl-5-(trifluoromethyl)-1H-pyrrole-2-carboxamide] here?
A: Its inhibition at 3 µM is > 95%.

Q: For `Cc1c(-c2ncc(Cl)cn2)c(C(=O)N2CCOCC2)n(Cc2ccccc2)c1C(F)(F)F` [Example 25, [1-Benzyl-3-(5-chloro-pyrimidin-2-yl)-4-methyl-5-(trifluoromethyl)-1H-pyrrol-2-yl]-morpholin-4-yl-methanone], which inhibition at 3 µM is on record?
A: Its inhibition at 3 µM is > 95%.

Q: With `COc1ccc(-c2c(C)c(C(F)(F)F)n(Cc3ccccc3)c2C(=O)N(C)CC(C)(C)C)cn1` [Example 02, 1-Benzyl-3-(6-methoxypyridin-3-yl)-N,4-dimethyl-N-neopentyl-5-(trifluoromethyl)-1H-pyrrole-2-carboxamide] as the compound, how does the inhibition at 3 µM read?
A: The inhibition at 3 µM was 40 to 75%.

Q: With `Cc1c(-c2ccn(C)n2)c(C(=O)N(C)C(C)C)n(Cc2ccccc2)c1C(F)(F)F` [Example 51, 1-Benzyl-N-isopropyl-N,4-dimethyl-3-(1-methyl-1H-pyrazol-3-yl)-5-(trifluoromethyl)-1H-pyrrole-2-carboxylic acid amide] as the compound, how does the inhibition at 3 µM read?
A: Its inhibition at 3 µM is 75 to 95%.

Q: `Cc1c(-c2ncc(Cl)cn2)c(C(=O)N(C)CC(C)(C)C#N)n(Cc2ccccc2)c1C(F)(F)F` [Example 49, 1-Benzyl-3-(5-chloro-pyrimidin-2-yl)-N-(2-cyano-2-methyl-propyl)-N,4-dimethyl-5-(trifluoromethyl)-1H-pyrrole-2-carboxylic acid amide] was tested. Which inhibition at 3 µM did it give?
A: Its inhibition at 3 µM is > 95%.

Q: How did the inhibition at 3 µM turn out when `COc1ncc(-c2c(C)c(C(F)(F)F)n(Cc3ccccc3)c2C(=O)N(C)CC(C)(C)C)cn1` [Example 12, 1-Benzyl-N-(2,2-dimethyl-propyl)-3-(2-methoxy-pyrimidin-5-yl)-N,4-dimethyl-5-(trifluoromethyl)-1H-pyrrole-2-carboxylic acid amide] was run?
A: Its inhibition at 3 µM is 75 to 95%.

Q: How did the inhibition at 3 µM turn out when `COc1cc(C)c(-c2c(C)c(C(F)(F)F)n(Cc3ccccc3)c2C(=O)N2CCOCC2)cn1` [Example 28, [1-Benzyl-3-(6-methoxy-4-methyl-pyridin-3-yl)-4-methyl-5-(trifluoromethyl)-1H-pyrrol-2-yl]-morpholin-4-yl-methanone] was run?
A: The inhibition at 3 µM was 75 to 95%.

Q: For `Cc1cc(Cl)ncc1-c1c(C)c(C(F)(F)F)n(Cc2ccccc2)c1C(=O)N1CCOCC1` [Example 27, [1-Benzyl-3-(6-chloro-4-methyl-pyridin-3-yl)-4-methyl-5-(trifluoromethyl)-1H-pyrrol-2-yl]-morpholin-4-yl-methanone], which inhibition at 3 µM is on record?
A: Its inhibition at 3 µM is 75 to 95%.

Q: `COc1cnc(-c2c(C)c(C(F)(F)F)n(Cc3ccccc3)c2C(=O)N2CCOCC2)cn1` [Example 05, (1-Benzyl-3-(5-methoxypyrazin-2-yl)-4-methyl-5-(trifluoromethyl)-1H-pyrrol-2-yl)(morpholino)methanone] was tested. Which inhibition at 3 µM did it give?
A: The inhibition at 3 µM was 40 to 75%.

Q: Which inhibition at 3 µM does the source give for `Cc1c(-c2ncc(Cl)cn2)c(C(=O)N2CCOC(C)(C)C2)n(Cc2ccccc2)c1C(F)(F)F` [Example 45, [1-Benzyl-3-(5-chloro-pyrimidin-2-yl)-4-methyl-5-(trifluoromethyl)-1H-pyrrol-2-yl]-(2,2-dimethyl-morpholin-4-yl)-methanone] here?
A: Its inhibition at 3 µM is > 95%.

Q: With `Cc1c(-c2ccnnc2)c(C(=O)N2CCOCC2)n(Cc2ccccc2)c1C(F)(F)F` [Example 37, (1-Benzyl-4-methyl-3-(pyridazin-4-yl)-5-(trifluoromethyl)-1H-pyrrol-2-yl)(morpholino)methanone] as the compound, how does the inhibition at 3 µM read?
A: The inhibition at 3 µM was 40 to 75%.

Q: How did the inhibition at 3 µM turn out when `Cc1c(-c2ncc(Cl)cn2)c(C(=O)N(C)C(C)C)n(Cc2ccccc2)c1C(F)(F)F` [Example 54, 1-Benzyl-3-(5-chloro-pyrimidin-2-yl)-N-isopropyl-N,4-dimethyl-5-(trifluoromethyl)-1H-pyrrole-2-carboxylic acid amide] was run?
A: The inhibition at 3 µM was > 95%.

Q: `Cc1c(-c2ncc(Cl)cc2[S+](C)[O-])c(C(=O)N(C)C(C)C)n(Cc2ccccc2)c1C(F)(F)F` (stereo not shown) [Example 61, 1-Benzyl-3-[5-chloro-3-(methylsulfinyl)-pyridin-2-yl]-N-isopropyl-N,4-dimethyl-5-(trifluoromethyl)-1H-pyrrole-2-carboxylic acid amide] was tested. Which inhibition at 3 µM did it give?
A: Its inhibition at 3 µM is 75 to 95%.

Q: For `Cc1c(-c2cnccn2)c(C(=O)N2CCOCC2)n(Cc2ccccc2)c1C(F)(F)F` [Example 39, (1-Benzyl-4-methyl-3-(pyrazin-2-yl)-5-(trifluoromethyl)-1H-pyrrol-2-yl)(morpholino)methanone], which inhibition at 3 µM is on record?
A: The inhibition at 3 µM was 40 to 75%.

Q: With `COc1cnc(-c2c(C)c(C(F)(F)F)n(Cc3ccccc3)c2C(=O)N(C)CC(C)(C)C)nc1` [Example 30, 1-Benzyl-3-(5-methoxypyrimidin-2-yl)-N,4-dimethyl-N-neopentyl-5-(trifluoromethyl)-1H-pyrrole-2-carboxamide] as the compound, how does the inhibition at 3 µM read?
A: The inhibition at 3 µM was 75 to 95%.

Q: How did the inhibition at 3 µM turn out when `Cc1c(-c2ccc(Cl)cn2)c(C(=O)N(C)C(C)C)n(Cc2ccccc2)c1C(F)(F)F` [Example 50, 1-Benzyl-3-(5-chloro-pyridin-2-yl)-N-isopropyl-N,4-dimethyl-5-(trifluoromethyl)-1H-pyrrole-2-carboxylic acid amide] was run?
A: The inhibition at 3 µM was > 95%.

Q: How did the inhibition at 3 µM turn out when `Cc1c(-c2ncc(Cl)cn2)c(C(=O)NC2CC2)n(Cc2ccccc2)c1C(F)(F)F` [Example 46, 1-Benzyl-3-(5-chloro-pyrimidin-2-yl)-N-cyclopropyl-4-methyl-5-(trifluoromethyl)-1H-pyrrole-2-carboxylic acid amide] was run?
A: The inhibition at 3 µM was 40 to 75%.
